According to ChEMBL document CHEMBL1201862, “PubChem BioAssay data set” (2004):
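Assay format: 96-well plates, 48-hour exposure. GI50: concentration for 50% inhibition of growth.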 Calls of active or inactive are those of the source. Cut-off read from the data, not from the text of the source: active = GI50 up to about 1.1 µM and inactive = higher.

Legend:
Assay in all cases: growth of human tumour cells (NCI), 48 h
CAKI-1 = system: CAKI-1
MCF7 = system: MCF7
SF-268 = system: SF-268
SF-539 = system: SF-539
Hs-578T = system: Hs-578T
SK-OV-3 = system: SK-OV-3
A498 = system: A498
HL-60 = system: HL-60
NCI-H460 = system: NCI-H460
PC-3 = system: PC-3
NCI-H23 = system: NCI-H23
NCI-H226 = system: NCI-H226
LOX IMVI = system: LOX IMVI
SF-295 = system: SF-295
SK-MEL-28 = system: SK-MEL-28
SK-MEL-5 = system: SK-MEL-5
DMS-114 = system: DMS-114
KM-20L2 = system: KM-20L2
M19-MEL = system: M19-MEL
LXFL 529 = system: LXFL 529

SMILES	GI50 (CAKI-1)	GI50 (MCF7)	GI50 (SF-268)	GI50 (SF-539)	GI50 (Hs-578T)	GI50 (SK-OV-3)	GI50 (A498)	GI50 (HL-60)	GI50 (NCI-H460)	GI50 (PC-3)	GI50 (NCI-H23)	GI50 (NCI-H226)	GI50 (LOX IMVI)	GI50 (SF-295)	GI50 (SK-MEL-28)	GI50 (SK-MEL-5)	GI50 (DMS-114)	GI50 (KM-20L2)	GI50 (M19-MEL)	GI50 (LXFL 529)
N#CC1(Nc2ccc(-c3ccc(NC4(C#N)CCCC4)cc3)cc2)CCCC1	> 100 µM (inactive)	> 100 µM (inactive)	> 100 µM (inactive)	11.8 µM (inactive)	> 100 µM (inactive)	> 100 µM (inactive)	> 100 µM (inactive)	> 100 µM (inactive)	> 100 µM (inactive)	> 100 µM (inactive)	> 100 µM (inactive)	> 100 µM (inactive)	> 100 µM (inactive)	> 100 µM (inactive)	> 100 µM (inactive)	59 µM (inactive)	–	–	–	–
Nc1n[nH]c(Nc2ccc(Cl)cc2)c1P(=O)(c1ccccc1)c1ccccc1	44.8 µM (inactive)	29 µM (inactive)	15.2 µM (inactive)	21.8 µM (inactive)	14.8 µM (inactive)	30.8 µM (inactive)	37.8 µM (inactive)	25.8 µM (inactive)	21.3 µM (inactive)	19.9 µM (inactive)	30.4 µM (inactive)	24.3 µM (inactive)	31.6 µM (inactive)	18.6 µM (inactive)	25.7 µM (inactive)	20.9 µM (inactive)	–	–	–	–
CCCCCOc1ccc(/C=N\c2ccc(CCc3ccc(/N=C/c4ccc(OCCCCC)cc4)cc3)cc2)cc1	–	> 100 µM (inactive)	> 100 µM (inactive)	> 100 µM (inactive)	–	> 100 µM (inactive)	> 100 µM (inactive)	> 100 µM (inactive)	> 100 µM (inactive)	–	> 100 µM (inactive)	> 100 µM (inactive)	> 100 µM (inactive)	> 100 µM (inactive)	> 100 µM (inactive)	> 100 µM (inactive)	> 100 µM (inactive)	> 100 µM (inactive)	> 100 µM (inactive)	–
Cn1ccnc1C(c1nccn1C)C(C)(C)[N+](=O)[O-]	> 100 µM (inactive)	–	> 100 µM (inactive)	> 100 µM (inactive)	–	> 100 µM (inactive)	> 100 µM (inactive)	> 100 µM (inactive)	> 100 µM (inactive)	–	–	–	> 100 µM (inactive)	> 100 µM (inactive)	> 100 µM (inactive)	> 100 µM (inactive)	> 100 µM (inactive)	–	> 100 µM (inactive)	–
O=C(CCN1CCCCC1)C(=Cc1ccccc1)C(=O)CCN1CCCCC1	2.45 µM (inactive)	35.8 µM (inactive)	> 78.9 µM (inactive)	49.8 µM (inactive)	–	> 100 µM (inactive)	> 100 µM (inactive)	21.7 µM (inactive)	> 100 µM (inactive)	–	> 59.8 µM (inactive)	> 100 µM (inactive)	38.7 µM (inactive)	> 100 µM (inactive)	> 10 µM (inactive)	> 100 µM (inactive)	2.77 µM (inactive)	> 100 µM (inactive)	67.3 µM (inactive)	–
Cc1ccc(C)n1-c1ccccc1C1C=CN(C(=O)OC(C)(C)C)C=C1	33.3 µM (inactive)	17.4 µM (inactive)	33.6 µM (inactive)	46.3 µM (inactive)	37.8 µM (inactive)	> 100 µM (inactive)	50.5 µM (inactive)	32.7 µM (inactive)	28.2 µM (inactive)	25.9 µM (inactive)	27.5 µM (inactive)	14.1 µM (inactive)	20.5 µM (inactive)	30 µM (inactive)	44.9 µM (inactive)	33.4 µM (inactive)	–	–	–	–
C[s+]1c2ccccc2c2ccccc21	–	–	> 100 µM (inactive)	> 100 µM (inactive)	–	–	–	> 100 µM (inactive)	> 100 µM (inactive)	–	> 10 µM (inactive)	58.5 µM (inactive)	> 100 µM (inactive)	> 100 µM (inactive)	> 100 µM (inactive)	> 100 µM (inactive)	–	> 100 µM (inactive)	> 100 µM (inactive)	> 100 µM (inactive)
O=C1c2ccccc2C(=O)N1CC#CCO	> 100 µM (inactive)	–	> 100 µM (inactive)	> 100 µM (inactive)	–	95.5 µM (inactive)	> 100 µM (inactive)	> 100 µM (inactive)	> 100 µM (inactive)	–	> 100 µM (inactive)	> 100 µM (inactive)	–	> 100 µM (inactive)	> 100 µM (inactive)	> 100 µM (inactive)	–	–	> 100 µM (inactive)	> 100 µM (inactive)
CC1(C)O[C@@H](CCl)C[C@H](C#N)O1	> 100 µM (inactive)	–	> 100 µM (inactive)	> 100 µM (inactive)	–	> 100 µM (inactive)	> 100 µM (inactive)	> 100 µM (inactive)	> 100 µM (inactive)	–	> 100 µM (inactive)	97.1 µM (inactive)	> 100 µM (inactive)	> 100 µM (inactive)	> 100 µM (inactive)	> 100 µM (inactive)	> 100 µM (inactive)	> 100 µM (inactive)	> 100 µM (inactive)	–
CC(C)(C)/N=C\N(C=C(c1ccccc1)c1ccccc1)C1CCCCC1	50.6 µM (inactive)	–	41.1 µM (inactive)	50.5 µM (inactive)	–	–	23.3 µM (inactive)	–	38.2 µM (inactive)	–	40.3 µM (inactive)	–	25.2 µM (inactive)	32 µM (inactive)	35 µM (inactive)	16.5 µM (inactive)	19.2 µM (inactive)	16.9 µM (inactive)	44.2 µM (inactive)	–
CN(C)c1ccc(/C=C/c2cc(-c3ccccc3)[n+](C)n2-c2ccccc2)cc1	1.91 µM (inactive)	0.157 µM (active)	0.431 µM (active)	1.49 µM (inactive)	0.0332 µM (active)	0.401 µM (active)	0.774 µM (active)	0.0218 µM (active)	0.122 µM (active)	0.158 µM (active)	0.0349 µM (active)	0.138 µM (active)	0.299 µM (active)	0.614 µM (active)	0.597 µM (active)	0.0341 µM (active)	–	–	–	–
O=C(NCCCNCCCCNCCCNC(=O)c1cc(-c2ccccc2)nc2ccccc12)c1cc(-c2ccccc2)nc2ccccc12	20.3 µM (inactive)	2.1 µM (inactive)	1.71 µM (inactive)	1.9 µM (inactive)	1.75 µM (inactive)	2.27 µM (inactive)	20.7 µM (inactive)	1.79 µM (inactive)	2.32 µM (inactive)	2.12 µM (inactive)	3 µM (inactive)	1.83 µM (inactive)	1.64 µM (inactive)	3.26 µM (inactive)	1.87 µM (inactive)	2.61 µM (inactive)	–	–	–	–
c1ccc2c(CCNC3=NCCO3)cccc2c1	> 10 µM (inactive)	> 10 µM (inactive)	> 10 µM (inactive)	> 10 µM (inactive)	> 10 µM (inactive)	> 10 µM (inactive)	> 10 µM (inactive)	> 10 µM (inactive)	> 10 µM (inactive)	> 10 µM (inactive)	> 10 µM (inactive)	> 10 µM (inactive)	> 10 µM (inactive)	> 10 µM (inactive)	> 10 µM (inactive)	> 10 µM (inactive)	–	–	–	–
CCN(CC)CCC(=O)NC1c2ccccc2Oc2c(C)cccc21 (configuration not stated)	–	–	> 100 µM (inactive)	> 100 µM (inactive)	–	> 100 µM (inactive)	–	> 100 µM (inactive)	> 100 µM (inactive)	–	> 100 µM (inactive)	> 100 µM (inactive)	> 100 µM (inactive)	–	> 100 µM (inactive)	> 100 µM (inactive)	> 100 µM (inactive)	–	> 100 µM (inactive)	> 100 µM (inactive)
CC(C)(C)[Si](Nc1ccccc1)(c1ccccc1)c1ccccc1	–	–	13.5 µM (inactive)	12.5 µM (inactive)	–	17.1 µM (inactive)	17.3 µM (inactive)	13.6 µM (inactive)	18.4 µM (inactive)	–	16.9 µM (inactive)	15.3 µM (inactive)	12.2 µM (inactive)	13.3 µM (inactive)	16.6 µM (inactive)	17.5 µM (inactive)	13.2 µM (inactive)	15.8 µM (inactive)	14.2 µM (inactive)	–
CC[C@H](C)N(CCN)C(=O)c1cc2ccccc2c(-c2ccccc2Cl)n1	5.57 µM (inactive)	–	1.55 µM (inactive)	2.15 µM (inactive)	–	–	4.07 µM (inactive)	7.67 µM (inactive)	14.1 µM (inactive)	–	12.8 µM (inactive)	15 µM (inactive)	14.3 µM (inactive)	15.1 µM (inactive)	13.5 µM (inactive)	–	13.9 µM (inactive)	13.2 µM (inactive)	–	3.3 µM (inactive)
Nc1ccccc1SCc1csc(-c2ccc(Cl)cc2)n1	51.3 µM (inactive)	23.8 µM (inactive)	22.8 µM (inactive)	22.2 µM (inactive)	28.2 µM (inactive)	31.7 µM (inactive)	23.3 µM (inactive)	3.52 µM (inactive)	26.2 µM (inactive)	19.8 µM (inactive)	24.7 µM (inactive)	20.7 µM (inactive)	16.9 µM (inactive)	41.2 µM (inactive)	30.5 µM (inactive)	14.8 µM (inactive)	–	–	–	–
O=C(O)Cc1ccccc1 [PHENYLACETIC ACID]	> 100 µM (inactive)	> 1000 µM (inactive)	> 100 µM (inactive)	> 100 µM (inactive)	> 100 µM (inactive)	> 100 µM (inactive)	> 100 µM (inactive)	> 100 µM (inactive)	> 100 µM (inactive)	> 100 µM (inactive)	> 100 µM (inactive)	> 100 µM (inactive)	> 100 µM (inactive)	841 µM (inactive)	> 100 µM (inactive)	> 100 µM (inactive)	–	–	–	–
